Results taken from patent US20230107941A1, “HEPATITIS B CAPSID ASSEMBLY MODULATORS” (Venatorx Pharmaceuticals, Inc., priority 2019, published 2023).
Where two headings read alike, the source gives them in different places.

Experiments:
[1] = test system: HBV; assay: In vitro antiviral assay: anti-HBV replication in HepAD38 cells (extracellular HBV DNA by QPCR); format: cell-based, hepatitis B virus (genotype D, serotype ayw); conditions: Hepatitis B virus
Description: The anti-HBV activity of the Capsid Assembly Modulators (CAMs) was evaluated in a cell based assay utilizing the human hepatoma cell line HepAD38 (Ladner, S K., et al., 1998). HepAD38 cells were derived from the parental line, HepG2, that were stably transfected with a construct containing an HBV genome (genotype D, serotype ayw) under the control of a tetracycline repressible CMV promoter. Upon removal of tetracycline, viral pre-genomic RNA (pgRNA) and mRNAs are expressed and infectious viral particles are assembled and secreted into the culture medium providing a reliable, robust system to measure multiple steps of the HBV life cycle. Disruption of capsid formation results in reduced levels of DNA-containing virus particles that are released into the culture supernatant. To quantify the effect of CAMs on HBV replication, we developed a sensitive QPCR-based assay that measures extracellular HBV DNA levels upon treatment of HepAD38 cells with various concentrations of test compounds.
HepAD38 cells were maintained in DMEM/F12 medium containing 10% FBS, 400 μg/mL G418 and 0.3 μg/mL tetracycline (tet+ media) to maintain repression of HBV replication. To evaluate each compound, HepAD38 cells were seeded into 24-well collagen coated culture plates (Corning BioCoat) at a density of 200,000 cells per well in 1 mL of medium without tetracycline (tet-media) and allowed to adhere overnight at 37° C., 5% CO2 in a humidified incubator. The following day, media was refreshed and a dose range of each compound was prepared by performing 1 log10 serial dilutions in 100% DMSO at 200× the desired assay concentration. Dilutions were then added to the cells resulting in a final dose range of 1 μM to 10 pM and the plates were returned to the incubator. Following 7 days of incubation, culture supernatants were harvested and HBV DNA levels were evaluated by QPCR and compared to the vehicle treated control wells (i.e. DMSO alone).
To quantify HBV DNA levels, cell culture supernatants were diluted 1:10 in sterile, nuclease-free water (Gibco). The diluted supernatants were subsequently added to a PCR master mix containing 1× Roche Light Cycler Master Mix, 0.5 μM forward primer, 0.5 μM reverse primer (Fwd: 5′-[…] (SEQ ID NO 1); Rev: 5′-[…] (SEQ ID NO 2)), 0.2 μM Roche Universal Probe Library Probe 25. The volume was brought to 20 μL with nuclease-free water and amplification of the HBV target sequence was performed using a Roche LightCycler 480 QPCR instrument. PCR extended out to 45 cycles with each cycle consisting of a denaturation step at 95° C. for 10 sec., followed by an annealing step at 60° C. for 10 sec. and a brief extension step at 72° C. for 1 sec.
Extracellular HBV DNA levels, expressed in copies/mL, were determined by comparison to a standard curve (10^2-10^9 copies/mL) using the Roche LightCycler analysis software. These values were subsequently converted to percent inhibition of HBV replication by dividing the HBV DNA levels in the experimental samples with those obtained from the vehicle control (˜1-2×10^5 copies/mL). Potency, expressed as an EC50 (the effective concentration required to inhibit 50% of HBV replication), was calculated from the dose-response curve using a 4-parameter non-linear regression analysis (GraphPad Prism). The nucleoside analog inhibitor entecavir was used as a positive control to validate each assay run. The EC50 value of entecavir in the HepAD38 assay was 0.5 nM, as previously reported in the literature.

[2] = In vitro cytotoxicity assay (MTT cell viability) in HepG2 cells; format: cell-based, human; conditions: human
Description: To evaluate antiviral selectivity, the cytotoxic activity of each compound was determined using a standard cell viability assay performed on the parental HepG2 cell line. Cell viability was determined by measuring the conversion of 3-(4,5-dimethylthiazol-2-yl)-2,5-diphenyltetrazolium bromide (MTT) to the insoluble formazan salt crystal that occurs in live cells. Briefly, HepG2 cells were seeded in 96-well plates at a density of 20,000 cells per well in […] (complete growth medium) and allowed to adhere overnight in a 37° C., […] humidified incubator. The next day, test agents were prepared by performing 8 half-log10 serial dilutions in 100% DMSO at 200× the final desired concentration in the assay. Compounds were tested over a range of concentrations from 30 μM to 1.0 nM in the assay. HepG2 cells were incubated in the presence of various concentrations of CAMs for 7 days in a 37° C., […] humidified incubator. At the completion of the 7-day incubation period, MTT reagent was added to each well and the mixture was incubated for an additional 3-4 hours. At the completion of the incubation period, all wells were aspirated to remove the culture medium. The formazan crystals were solubilized from the cell monolayers with 100% DMSO. Plates were briefly mixed on an orbital shaker and absorbance was measured at 492 nm using a Perkin-Elmer EnVision multi-label plate reader. All absorbance values were converted to a percentage of the signal obtained from the vehicle treated controls. Absorbance values at 492 nm are directly proportional to the number of viable cells present in the sample. A CC50 value (cytotoxic concentration that results in loss of 50% cell viability) was calculated from the dose-response curve by 4-parameter, non-linear regression analysis using the GraphPad Prism software. The positive control compound, staurosporine, reduced the viability of HepG2 cells in a dose-dependent manner (CC50=100 nM).

[3] = HePAD38, 168 h, 7 days incubation, extracellular HBV DNA by QPCR, read-out: Anti-HBV EC50

SMILES | EC50 [1, 3] | CC50 at 7 days [2] | CC50 at 7 days ([2]; positive control, HepG2 cells, MTT, read-out: CC50 (viability of HepG2 cells)) | EC50 ([1]; HePAD38, positive control, read-out: EC50 in the HepAD38 assay)
Cc1cc(NC(=O)c2c(C)c(C(=O)C(=O)N[C@]3(C)C[C@H](O)C3)n(C)c2C(C)C)ccc1F [Example 109, N-(4-fluoro-3-methylphenyl)-5-(2-(((1s,3s)-3-hydroxy-1-methylcyclobutyl)amino)-2-oxoacetyl)-2-isopropyl-1,4-dimethyl-1H-pyrrole-3-carboxamide] | 50 to 499 nM | > 30000 nM | – | –
Cc1cc(NC(=O)c2c(C)c(C(=O)C(=O)NCC(C)(C)O)n(C)c2CC2CC2)ccc1F [Example 127, 2-(cyclopropylmethyl)-N-(4-fluoro-3-methylphenyl)-5-(2-((2-hydroxy-2-methylpropyl)amino)-2-oxoacetyl)-1,4-dimethyl-1H-pyrrole-3-carboxamide] | < 50 nM | 5000 to 30000 nM | – | –
Cc1cc(NC(=O)c2c(C)c(C(=O)C(=O)N[C@H]3CC[C@@H](S(C)(=O)=O)CC3)n(C)c2-c2ccsc2)ccc1F [Example 182, N-(4-fluoro-3-methylphenyl)-1,4-dimethyl-5-(2-(((1s,4s)-4-(methylsulfonyl)cyclohexyl)amino)-2-oxoacetyl)-2-(thiophen-3-yl)-1H-pyrrole-3-carboxamide] | > 1000 nM | > 30000 nM | – | –
Cc1cc(NC(=O)c2c(C)c(C(=O)C(=O)NC34CC(O)(C3)C4)n(C)c2C)ccc1F [Example 82, N-(4-fluoro-3-methylphenyl)-5-(2-((3-hydroxybicyclo[1.1.1]pentan-1-yl)amino)-2-oxoacetyl)-1,2,4-trimethyl-1H-pyrrole-3-carboxamide] | < 50 nM | > 30000 nM | – | –
Cc1cc(NC(=O)c2c(C3CC3)c(C(=O)C(=O)N[C@H]3CC[C@@H](O)CC3)n(C)c2C)ccc1F [Example 97, 4-cyclopropyl-N-(4-fluoro-3-methylphenyl)-5-(2-(((1s,4s)-4-hydroxycyclohexyl)amino)-2-oxoacetyl)-1,2-dimethyl-1H-pyrrole-3-carboxamide] | 500 to 1000 nM | > 30000 nM | – | –
Cc1cc(NC(=O)c2c(C)c(C(=O)C(=O)NC3CCc4nnn(C)c4C3)n(C)c2C)ccc1F (stereo not shown) [Example 85, N-(4-fluoro-3-methylphenyl)-1,2,4-trimethyl-5-(2-((1-methyl-4,5,6,7-tetrahydro-1H-benzo[d][1,2,3]triazol-6-yl)amino)-2-oxoacetyl)-1H-pyrrole-3-carboxamide] | < 50 nM | > 30000 nM | – | –
Cc1cc(NC(=O)c2c(C)c(C(=O)C(=O)N[C@H]3CC[C@@H](O)CC3)n(C)c2-c2ccsc2)ccc1F [Example 184, N-(4-fluoro-3-methylphenyl)-5-(2-(((1s,4s)-4-hydroxycyclohexyl)amino)-2-oxoacetyl)-1,4-dimethyl-2-(thiophen-3-yl)-1H-pyrrole-3-carboxamide] | > 1000 nM | 5000 to 30000 nM | – | –
Cc1c(C(=O)NCc2noc(C(F)(F)F)n2)c(C)n(C)c1C(=O)C(=O)NC(C)(C)C [Example 58, 5-(2-(tert-butylamino)-2-oxoacetyl)-1,2,4-trimethyl-N-((5-(trifluoromethyl)-1,2,4-oxadiazol-3-yl)methyl)-1H-pyrrole-3-carboxamide] | > 1000 nM | > 30000 nM | – | –
CCC(CC)NC(=O)C(=O)c1c(C)c(C(=O)Nc2ccc(F)c(C)c2)c(C)n1C [Example 188, N-(4-fluoro-3-methylphenyl)-1,2,4-trimethyl-5-(2-oxo-2-(pentan-3-ylamino)acetyl)-1H-pyrrole-3-carboxamide] | < 50 nM | 5000 to 30000 nM | – | –
Cc1cc(NC(=O)c2c(C)c(C(=O)C(=O)N[C@]3(C)CC[C@H](O)CC3)n(C)c2-c2ccsc2)ccc1F [Example 183, N-(4-fluoro-3-methylphenyl)-5-(2-(((1s,4s)-4-hydroxy-1-methylcyclohexyl)amino)-2-oxoacetyl)-1,4-dimethyl-2-(thiophen-3-yl)-1H-pyrrole-3-carboxamide] | 50 to 499 nM | > 30000 nM | – | –
Cc1c(C(=O)Nc2cc(Cl)nc(Cl)c2)c(C)n(C)c1C(=O)C(=O)N[C@H](C)C(F)(F)F [Example 51, (R)-N-(2,6-dichloropyridin-4-yl)-1,2,4-trimethyl-5-(2-oxo-2-((1,1,1-trifluoropropan-2-yl)amino)acetyl)-1H-pyrrole-3-carboxamide] | < 50 nM | > 30000 nM | – | –
Cc1cc(NC(=O)c2c(C)c(C(=O)C(=O)N[C@]3(C4CC4)CC[C@@H](O)CC3)n(C)c2C)ccc1F [Example 3, 5-(2-(((1r,4r)-1-cyclopropyl-4-hydroxycyclohexyl)amino)-2-oxoacetyl)-N-(4-fluoro-3-methylphenyl)-1,2,4-trimethyl-1H-pyrrole-3-carboxamide] | < 50 nM | > 30000 nM | – | –
Cc1cc(NC(=O)c2c(C)c(C(=O)C(=O)N[C@H]3CCCC(F)(F)[C@@H]3O)n(C)c2C)ccc1F [Example 13, 5-(2-(((1S,2R)-3,3-difluoro-2-hydroxycyclohexyl)amino)-2-oxoacetyl)-N-(4-fluoro-3-methylphenyl)-1,2,4-trimethyl-1H-pyrrole-3-carboxamide] | < 50 nM | > 30000 nM | – | –
Cc1cc(NC(=O)c2c(C)c(C(=O)C(=O)NC3C[C@H]4C[C@@H]3CC4O)n(C)c2C)ccc1F (stereo partly drawn) [Example 23, N-(4-fluoro-3-methylphenyl)-5-(2-(((1R,4R)-5-hydroxybicyclo[2.2.1]heptan-2-yl)amino)-2-oxoacetyl)-1,2,4-trimethyl-1H-pyrrole-3-carboxamide] | < 50 nM | > 30000 nM | – | –
Cc1c(C(=O)Nc2ccc(F)c(C(=O)O)c2)c(C)n(C)c1C(=O)C(=O)NC(C)(C)C [Example 56, 5-(5-(2-(tert-butylamino)-2-oxoacetyl)-1,2,4-trimethyl-1H-pyrrole-3-carboxamido)-2-fluorobenzoic acid] | 500 to 1000 nM | > 30000 nM | – | –
Cc1cc(NC(=O)c2c(C)c(C(=O)C(=O)N[C@H]3CC[C@@H](O)CC3)n(C)c2CC2CC2)ccc1F [Example 126, 2-(cyclopropylmethyl)-N-(4-fluoro-3-methylphenyl)-5-(2-(((1s,4s)-4-hydroxycyclohexyl)amino)-2-oxoacetyl)-1,4-dimethyl-1H-pyrrole-3-carboxamide] | < 50 nM | > 30000 nM | – | –
CN[C@@H]1C[C@H]2O[C@@](C)([C@@H]1OC)n1c3ccccc3c3c4c(c5c6ccccc6n2c5c31)C(=O)NC4 [staurosporine, reference compound] | – | – | 100 nM | –
C=C1[C@H](CO)[C@@H](O)C[C@@H]1n1cnc2c(=O)[nH]c(N)nc21 [entecavir, reference compound] | – | – | – | 0.5 nM
